# According to patent publication US6727076B2 (priority 1995, dated 2004):
# “Also recorded” adds a separate entry of the source. Peptide text beside a SMILES is read from it.
# Test system: E. coli MG1655
# Assay type: cell-based
row,SMILES,"suitability as nitrogen source (growth, purple color)"
1,CCCCCCC(N)C(=O)O (racemic) [DL-α-amino-caprylic acid],not suitable
2,CCC(N)C(=O)O (racemic) [DL-α-amino-n-butyric acid],not suitable
3,CCCC(N)C(=O)O (centres unmarked) [2-amino-valeric acid],not suitable
4,C[C@@H](N)c1ccccc1 [(R)-(+)-α-phenylethylamine],not suitable
5,Nc1ncnc2c1ncn2[C@@H]1O[C@H](CO)[C@@H](O)[C@H]1O [Adenosine],not suitable
6,N[C@H]1C(O)O[C@H](CO)[C@H](O)[C@@H]1O (stereo partly drawn) [D(+)-galactosamine],weak positive
7,N[C@H]1C(O)O[C@H](CO)[C@@H](O)[C@@H]1O (stereo partly drawn) [D(+)-glucosamine],positive
8,NC(=O)C[C@@H](N)C(=O)O [D-asparagine],not suitable
9,N[C@H](CCC(=O)O)C(=O)O [D-glutamic acid],not suitable
10,NCCCC[C@@H](N)C(=O)O [D-lysine],not suitable
11,N[C@@H]1C(O)O[C@H](CO)[C@@H](O)[C@@H]1O (stereo partly drawn) [D-mannosamine],weak positive
12,CC(C)[C@@H](N)C(=O)O [D-valine],not suitable
13,NC(=O)[C@@H](O)[C@@H](O)[C@H](O)[C@@H](O)C=O [Glucuronamide],not suitable
14,N=C(N)NCCC[C@H](N)C(=O)O [L-arginine],positive
15,NC(=O)NCCC[C@H](N)C(=O)O [L-citrulline],not suitable
16,N[C@@H](CCO)C(=O)O [L-homoserine],not suitable
17,CC[C@H](C)[C@H](N)C(=O)O [L-isoleucine],not suitable
18,CC(C)C[C@H](N)C(=O)O [L-leucine],not suitable
19,NCCCC[C@H](N)C(=O)O [L-lysine],not suitable
20,N[C@@H](Cc1ccc(O)cc1)C(=O)O [L-tyrosine],not suitable

row,SMILES,"suitability as nitrogen source (growth, purple color)"
1,CC(C)[C@H](N)C(=O)O [L-valine],not suitable
2,CC(=O)N[C@H]1C(O)O[C@H](CO)[C@H](O)[C@@H]1O (stereo partly drawn) [N-acetyl-D-galactosamine],not suitable
3,CC(=O)N[C@@H]1C(O)O[C@H](CO)[C@@H](O)[C@@H]1O (stereo partly drawn) [N-acetyl-D-mannosamine],not suitable
4,CC(=O)NCC(=O)O [N-acetyl-glycine],not suitable
5,"Cl.N [NH4Cl, ammonium chloride]",positive
6,NCCc1ccccc1 [Phenylethyl amine],not suitable
7,Cc1cn([C@H]2C[C@H](O)[C@@H](CO)O2)c(=O)[nH]c1=O [Thymidine],not suitable
8,NCCc1ccc(O)cc1 [Tyramine],not suitable
9,CC(N)=O [acetamide],not suitable
10,Nc1ncnc2nc[nH]c12 [adenine],not suitable
11,N=C(N)NCCCCN [agmatine],not suitable
12,C[C@H](N)C(=O)N[C@@H](CCC(N)=O)C(=O)O [ala-gln] (H-Ala-Gln-OH),positive
13,C[C@H](N)C(=O)N[C@@H](Cc1cnc[nH]1)C(=O)O [ala-his] (H-Ala-His-OH),not suitable
14,C[C@H](N)C(=O)N[C@H](C(=O)O)[C@@H](C)O [ala-thr] (H-Ala-Thr-OH),positive
15,O=C1NC(=O)C(=O)C(=O)N1 [alloxan],not suitable
16,CCN [ethylamine],not suitable
17,NCCN [ethylenediamine],not suitable
18,NC=O [formamide],not suitable
19,C[C@H](NC(=O)CN)C(=O)O [gly-ala] (H-Gly-Ala-OH),positive
20,NCC(=O)N[C@@H](CC(N)=O)C(=O)O [gly-asn] (H-Gly-Asn-OH),positive

row,SMILES,"suitability as nitrogen source (growth, purple color)"
1,NCC(=O)N[C@@H](CCC(N)=O)C(=O)O [gly-gln] (H-Gly-Gln-OH),positive
2,CSCC[C@H](NC(=O)CN)C(=O)O [gly-met],positive
3,NCC(=O)O [glycine],positive
4,O=C(O)CNC(=O)c1ccccc1 [hippuric acid],not suitable
5,NCCc1c[nH]cn1 [histamine],not suitable
6,CC(O)C(N)=O (centres unmarked) [lactamide],not suitable
7,CSCC[C@H](N)C(=O)N[C@@H](C)C(=O)O [met-ala] (H-Met-Ala-OH),not suitable
8,CCCCCN [n-amylamine],not suitable
9,CCCCN [n-butylamine],not suitable
10,O=[N+]([O-])[O-].[K+] [potassium nitrate],not suitable
11,NCCCCN [putrescine],not suitable
12,O=NO [sodium nitrite],not suitable
13,Cc1c[nH]c(=O)[nH]c1=O [thymine],not suitable
14,NC(N)=O [urea],not suitable
15,O=c1[nH]c(=O)c2[nH]c(=O)[nH]c2[nH]1 [uric acid],not suitable
16,O=C(O)/C=C/c1c[nH]cn1 [urocanic acid],not suitable
17,O=c1[nH]c(=O)c2[nH]cnc2[nH]1 [xanthine],not suitable
18,O=c1[nH]c(=O)c2ncn([C@@H]3O[C@H](CO)[C@@H](O)[C@H]3O)c2[nH]1 [xanthosine],not suitable
19,NCCCCCC(=O)O [ε-amino-n-caproic acid],not suitable

# Test system: E. coli MG1655
# Assay type: cell-based
# Remark: another data set of the same source
SMILES,"suitability as sulfur source (growth, purple color)","suitability as phosphorus source (growth, purple color)"
CCSCCC(N)C(=O)O (racemic) [DL-ethionine],not suitable,–
CSCCC(NC(C)=O)C(=O)O (racemic) [N-acetyl-DL-methionine],positive,–
CSCCC(NC(=O)CN)C(=O)O (racemic) [glycyl-DL-methionine],positive,–
CCCCCCCCCCCCS(=O)(=O)O [1-dodecane-sulfonic acid],not suitable,–
O=C(O)C(CO)OP(=O)(O)O (centres unmarked) [2-phosphoglyceric acid],–,positive
O=C(O)[C@H](O)[C@@H](O)[C@H](O)[C@H](O)COP(=O)(O)O [6-phosphogluconic acid],–,positive

# Test system: E. coli 287 (ATCC #11775)
# Assay type: cell-based
row,SMILES,carbon source utilization result
1,"C[N+](C)(C)CC(O)CC(=O)[O-] (racemic) [D,L-carnitine]",negative
2,"CC(O)C(=O)O (racemic) [D,L-lactic acid]",positive
3,"CC(O)C(C)O (centres unmarked) [2,3-butanediol]",positive/negative
4,CC(=O)O [Acetic acid],positive
5,OC[C@@H](O)[C@@H](O)[C@@H](O)CO [Adonitol],negative
6,O=C(O)[C@H](O)[C@@H](O)[C@H](O)[C@H](O)CO [D-gluconic acid],positive
7,O=C[C@H](O)[C@@H](O)[C@H](O)[C@H](O)C(=O)O [D-glucuronic acid],positive
8,NCC(=O)N[C@@H](CC(=O)O)C(=O)O [Glycyl-L-aspartic acid] (H-Gly-Asp-OH),positive
9,CC(C)C[C@H](N)C(=O)O [L-leucine],negative
10,C[C@H](O)[C@H](O)[C@@H](O)[C@@H](O)C=O [L-rhamnose],positive
11,CC(=O)N[C@H]1C(O)O[C@H](CO)[C@H](O)[C@@H]1O (stereo partly drawn) [N-acetyl-D-galactosamine],positive
12,NCCc1ccccc1 [Phenylethyl amine],positive/negative
13,Cc1cn([C@H]2C[C@H](O)[C@@H](CO)O2)c(=O)[nH]c1=O [Thymidine],positive
14,C[C@H](N)C(N)=O [alaninamide],positive
15,O=C(O)/C=C(/CC(=O)O)C(=O)O [cis-aconitic acid],positive/negative
16,C=C(CC(=O)O)C(=O)O [itaconic acid],negative
17,O=C(O)CC(=O)O [malonic acid],negative
18,NCCCCN [putrescine],positive/negative
19,O=C(O)/C=C/c1c[nH]cn1 [urocanic acid],negative; also recorded: equivocal; also recorded: positive
20,OC[C@@H](O)[C@H](O)[C@@H](O)CO [xylitol],negative
21,OC[C@H]1O[C@@H](O[C@H]2[C@H](O)[C@@H](O)[C@@H](O)O[C@@H]2CO)[C@H](O)[C@@H](O)[C@H]1O [α-D-lactose],positive
22,OC[C@H]1O[C@@H]2O[C@H]3[C@H](O)[C@@H](O)[C@@H](O[C@H]4[C@H](O)[C@@H](O)[C@@H](O[C@H]5[C@H](O)[C@@H](O)[C@@H](O[C@H]6[C@H](O)[C@@H](O)[C@@H](O[C@H]7[C@H](O)[C@@H](O)[C@@H](O[C@H]1[C@H](O)[C@H]2O)O[C@@H]7CO)O[C@@H]6CO)O[C@@H]5CO)O[C@@H]4CO)O[C@@H]3CO [α-cyclodextrin],negative
23,CCCC(=O)C(=O)O [α-ketovaleric acid],negative
24,O=C(O)CCCO [γ-hydroxybutyric acid],negative
